Assay results: the supplement of paper PMC10307832

Columns and labels:
Assay in all cases: relative viability (nuclei count vs DMSO), 5 days (fraction); higher = more cells survive
NCI-H2087 = system: NCI-H2087
In short: (§1)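 Relative viability is defined as nuclei in treated wells over nuclei in vehicle wells. Duplicate plates were run and medians reported. Lung cancer cell lines in 1536-well plates were dosed by pin tool one day after seeding, with one drug or with a fixed anchor-drug dose plus five library-drug doses (not always all listed) in √10 steps, and nuclei were counted after 5 days.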

NCI-H1734 = system: NCI-H1734
In short: as §1

NCI-H522 = system: NCI-H522
In short: as §1

NCI-H1993 = system: NCI-H1993
In short: as §1

NCI-H1792 = system: NCI-H1792
In short: as §1

NCI-H1437 = system: NCI-H1437
In short: as §1

NCI-H1395 = system: NCI-H1395
In short: as §1

SK-LU-1 = system: SK-LU-1
In short: as §1

NCI-H2405 = system: NCI-H2405
In short: as §1

NCI-H647 = system: NCI-H647
In short: as §1

HCC-827 = system: HCC-827
In short: as §1

NCI-H1355 = system: NCI-H1355
In short: as §1

BEN = system: BEN
In short: as §1

EKVX = system: EKVX
In short: as §1

NCI-H661 = system: NCI-H661
In short: as §1

NCI-H2009 = system: NCI-H2009
In short: as §1

HARA = system: HARA
In short: as §1

HCC-366 = system: HCC-366
In short: as §1

SK-MES-1 = system: SK-MES-1
In short: as §1

NCI-H2342 = system: NCI-H2342
In short: as §1

LOU-NH91 = system: LOU-NH91
In short: as §1

NCI-H2170 = system: NCI-H2170
In short: as §1

## CCN(CC)CCCCNc1ncc2cc(-c3cc(OC)cc(OC)c3)c(NC(=O)NC(C)(C)C)nc2n1 + CC(=O)c1c(C)c2cnc(Nc3ccc(N4CCNCC4)cn3)nc2n(C2CCCC2)c1=O [Palbociclib] (partner 0.5 µM)
NCI-H2087; first compound 0.01 µM
  relative viability: 0.154
NCI-H2087; first compound 0.03162 µM
  relative viability: 0.219
NCI-H2087; first compound 0.1 µM
  relative viability: 0.206
NCI-H2087; first compound 0.3162 µM
  relative viability: 0.234
NCI-H2087; first compound 1 µM
  relative viability: 0.225
NCI-H1734; first compound 0.01 µM
  relative viability: 0.16
NCI-H1734; first compound 0.03162 µM
  relative viability: 0.281
NCI-H1734; first compound 0.1 µM
  relative viability: 0.334
NCI-H1734; first compound 0.3162 µM
  relative viability: 0.38
NCI-H1734; first compound 1 µM
  relative viability: 0.323
NCI-H522; first compound 0.01 µM
  relative viability: 1.04
NCI-H522; first compound 0.03162 µM
  relative viability: 1.01
NCI-H522; first compound 0.1 µM
  relative viability: 0.921
NCI-H522; first compound 0.3162 µM
  relative viability: 1.12
NCI-H522; first compound 1 µM
  relative viability: 0.935
NCI-H1993; first compound 0.01 µM
  relative viability: 0.368
NCI-H1993; first compound 0.03162 µM
  relative viability: 0.763
NCI-H1993; first compound 0.1 µM
  relative viability: 0.791
NCI-H1993; first compound 0.3162 µM
  relative viability: 0.661
NCI-H1993; first compound 1 µM
  relative viability: 0.738
NCI-H1792; first compound 0.01 µM
  relative viability: 0.66
NCI-H1792; first compound 0.03162 µM
  relative viability: 0.623
NCI-H1792; first compound 0.1 µM
  relative viability: 0.568
NCI-H1792; first compound 0.3162 µM
  relative viability: 0.562
NCI-H1792; first compound 1 µM
  relative viability: 0.639
NCI-H1437; first compound 0.01 µM
  relative viability: 0.319
NCI-H1437; first compound 0.03162 µM
  relative viability: 0.331
NCI-H1437; first compound 0.1 µM
  relative viability: 0.326
NCI-H1437; first compound 0.3162 µM
  relative viability: 0.303
NCI-H1437; first compound 1 µM
  relative viability: 0.285
NCI-H1395; first compound 0.01 µM
  relative viability: 0.637
NCI-H1395; first compound 0.03162 µM
  relative viability: 0.59
NCI-H1395; first compound 0.1 µM
  relative viability: 0.661
NCI-H1395; first compound 0.3162 µM
  relative viability: 0.546
NCI-H1395; first compound 1 µM
  relative viability: 0.448
SK-LU-1; first compound 0.01 µM
  relative viability: 0.457
SK-LU-1; first compound 0.03162 µM
  relative viability: 0.387
SK-LU-1; first compound 0.1 µM
  relative viability: 0.359
SK-LU-1; first compound 0.3162 µM
  relative viability: 0.434
SK-LU-1; first compound 1 µM
  relative viability: 0.309
NCI-H2405; first compound 0.01 µM
  relative viability: 0.567
NCI-H2405; first compound 0.03162 µM
  relative viability: 0.564
NCI-H2405; first compound 0.1 µM
  relative viability: 0.539
NCI-H2405; first compound 0.3162 µM
  relative viability: 0.534
NCI-H2405; first compound 1 µM
  relative viability: 0.52
NCI-H647; first compound 0.01 µM
  relative viability: 0.309
NCI-H647; first compound 0.03162 µM
  relative viability: 0.42
NCI-H647; first compound 0.1 µM
  relative viability: 0.427
NCI-H647; first compound 0.3162 µM
  relative viability: 0.497
NCI-H647; first compound 1 µM
  relative viability: 0.394
HCC-827; first compound 0.01 µM
  relative viability: 0.49
HCC-827; first compound 0.03162 µM
  relative viability: 0.473
HCC-827; first compound 0.1 µM
  relative viability: 0.507
HCC-827; first compound 0.3162 µM
  relative viability: 0.644
HCC-827; first compound 1 µM
  relative viability: 0.454
NCI-H1355; first compound 0.01 µM
  relative viability: 0.378
NCI-H1355; first compound 0.03162 µM
  relative viability: 0.402
NCI-H1355; first compound 0.1 µM
  relative viability: 0.465
NCI-H1355; first compound 0.3162 µM
  relative viability: 0.376
NCI-H1355; first compound 1 µM
  relative viability: 0.364
BEN; first compound 0.01 µM
  relative viability: 0.489
BEN; first compound 0.03162 µM
  relative viability: 0.417
BEN; first compound 0.1 µM
  relative viability: 0.493
BEN; first compound 0.3162 µM
  relative viability: 0.524
BEN; first compound 1 µM
  relative viability: 0.475
EKVX; first compound 0.03162 µM
  relative viability: 0.406
EKVX; first compound 0.1 µM
  relative viability: 0.31
EKVX; first compound 0.3162 µM
  relative viability: 0.817
EKVX; first compound 1 µM
  relative viability: 0.413
NCI-H661; first compound 0.01 µM
  relative viability: 0.394
NCI-H661; first compound 0.03162 µM
  relative viability: 0.41
NCI-H661; first compound 0.1 µM
  relative viability: 0.418
NCI-H661; first compound 0.3162 µM
  relative viability: 0.444
NCI-H661; first compound 1 µM
  relative viability: 0.38
NCI-H2009; first compound 0.01 µM
  relative viability: 0.211
NCI-H2009; first compound 0.03162 µM
  relative viability: 0.22
NCI-H2009; first compound 0.1 µM
  relative viability: 0.234
NCI-H2009; first compound 0.3162 µM
  relative viability: 0.196
NCI-H2009; first compound 1 µM
  relative viability: 0.161
HARA; first compound 0.01 µM
  relative viability: 0.228
HARA; first compound 0.03162 µM
  relative viability: 0.243
HARA; first compound 0.1 µM
  relative viability: 0.306
HARA; first compound 0.3162 µM
  relative viability: 0.223
HARA; first compound 1 µM
  relative viability: 0.269
HCC-366; first compound 0.01 µM
  relative viability: 0.364
HCC-366; first compound 0.03162 µM
  relative viability: 0.406
HCC-366; first compound 0.1 µM
  relative viability: 0.504
HCC-366; first compound 0.3162 µM
  relative viability: 0.438
HCC-366; first compound 1 µM
  relative viability: 0.441
SK-MES-1; first compound 0.01 µM
  relative viability: 0.394
SK-MES-1; first compound 0.03162 µM
  relative viability: 0.345
SK-MES-1; first compound 0.1 µM
  relative viability: 0.32
SK-MES-1; first compound 0.3162 µM
  relative viability: 0.268
SK-MES-1; first compound 1 µM
  relative viability: 0.297
NCI-H2342; first compound 0.01 µM
  relative viability: 0.514
NCI-H2342; first compound 0.03162 µM
  relative viability: 0.514
NCI-H2342; first compound 0.1 µM
  relative viability: 0.528
NCI-H2342; first compound 0.3162 µM
  relative viability: 0.548
NCI-H2342; first compound 1 µM
  relative viability: 0.556
LOU-NH91; first compound 0.01 µM
  relative viability: 0.572
LOU-NH91; first compound 0.03162 µM
  relative viability: 0.546
LOU-NH91; first compound 0.1 µM
  relative viability: 0.557
LOU-NH91; first compound 0.3162 µM
  relative viability: 0.491
LOU-NH91; first compound 1 µM
  relative viability: 0.412
NCI-H2170; first compound 0.01 µM
  relative viability: 0.38
NCI-H2170; first compound 0.03162 µM
  relative viability: 0.37
NCI-H2170; first compound 0.1 µM
  relative viability: 0.429
NCI-H2170; first compound 0.3162 µM
  relative viability: 0.409
NCI-H2170; first compound 1 µM
  relative viability: 0.385
